Results as given in patent US20250082624A1, “METHODS OF TREATING COGNITIVE IMPAIRMENT” (NeuroTherapia, Inc., priority 2023, published 2025).
Where two headings read alike, the source gives them in different places.

Assay: Phase 1b MAD plasma pharmacokinetics, non-compartmental analysis
Type: in vivo, human
Conditions: human, plasma, po
Text: Methods: All study procedures were approved by the IRB, and informed consent was obtained. Three cohorts of volunteers 45-80 years of age with well-controlled comorbidities (NOAD) and one cohort of AD patients diagnosed with cognitive impairment consistent with prodromal AD per International Working Group criteria or mild AD per National Institute on Aging—Alzheimer's Association criteria (n=6 active, 2 placebo per cohort) were enrolled. Participants were admitted to the study site for the duration of the dosing and returned 7-12 days after the last dose for a safety visit. Participants received NTRX-07 (10, 30, or 90 mg) or a placebo in a double-blinded randomization orally once daily for seven days. Subjects were assessed for changes in vital signs, including maneuvers to induce lightheadedness, electrocardiograms, 24-hour electroencephalograms (EEG), and safety laboratory studies. The second cohort returned and received a single repeat dose after a standard high-fat meal. The AD cohort also underwent cognitive testing and had blood samples for biomarkers drawn. Subjects had PK sampling done after the first and final dose of the study drug. An independent safety review committee conducted a blinded safety review of adverse events and plasma levels between each cohort.
All subjects had PK sampling done after the first and final dose of the study drug.
Raw bioanalytical data were received from Nuvisan following analysis of plasma samples from each of four cohorts. PK parameters were calculated by noncompartmental analysis using standard equations. Specifically, area under the plasma concentration versus time curve (AUC) was calculated using the trapezoid rule. Maximal plasma concentration (Cmax) and time of maximal plasma concentration (Tmax) were taken directly from the data. Clearance divided by bioavailability (Cl/F) was calculated as the dose divided by the AUC. Apparent volume of distribution over bioavailability (Vd/F) was calculated as dose divided by Cmax.
With oral administration of the dose every 24 hours for 7 days, blood samples were taken over a 24-hour interval on Days 1 and 7 and before and after dosing on Day 3.
Raw bioanalytical data were received from Nuvisan on Oct. 27, 2022. […] Specifically, area under the plasma concentration versus time curve (AUC) was calculated using the trapezoid rule. Maximal plasma concentration (Cmax) and time of maximal plasma concentration (Tmax) were taken directly from the data. Clearance divided by bioavailability (Cl/F) was calculated as the dose divided by the AUC. Apparent volume of distribution over bioavailability (Vd/F) was calculated as dose divided by Cmax.
Raw bioanalytical data were received from Nuvisan on Nov. 24, 2022. […] Specifically, area under the plasma concentration versus time curve (AUC) was calculated using the trapezoid rule. Maximal plasma concentration (Cmax) and time of maximal plasma concentration (Tmax) were taken directly from the data. Clearance divided by bioavailability (Cl/F) was calculated as the dose divided by the AUC. Apparent volume of distribution over bioavailability (Vd/F) was calculated as dose divided by Cmax.
Raw bioanalytical data were received from Nuvisan on Dec. 19, 2022. […] Specifically, area under the plasma concentration versus time curve (AUC) was calculated using the trapezoid rule. Maximal plasma concentration (Cmax) and time of maximal plasma concentration (Tmax) were taken directly from the data. Clearance divided by bioavailability (Cl/F) was calculated as the dose divided by the AUC. Apparent volume of distribution over bioavailability (Vd/F) was calculated as dose divided by Cmax.
Raw bioanalytical data were received from Nuvisan on Jun. 30, 2023. […] Specifically, area under the plasma concentration versus time curve (AUC) was calculated using the trapezoid rule. Maximal plasma concentration (Cmax) and time of maximal plasma concentration (Tmax) were taken directly from the data. […]

Work on `CC1(Cc2ccccc2)COc2cc(C(=O)N3CCCCC3)ccc21` (centres unmarked) [NTRX-07, 3-benzyl-3-methyl-2,3-dihydrobenzofuran-6-carboxylic acid-piperidine amide] yielded a Cmax (10 mg, Table 10: Cohort A, 10 mg QD oral, Day 7, mean ± S.D., read-out: Cmax) of 37.7 ± 15.9 ng/mL, a Tmax (10 mg, Table 10: Cohort A, 10 mg QD oral, Day 7, mean ± S.D., read-out: Tmax) of 48 ± 18 min and a Vd/F (10 mg, Table 10: Cohort A, 10 mg QD oral, Day 7, mean ± S.D., read-out: Vd/F) of 307 ± 126 L. The Tmax (10 mg, Table 19 (interim): Cohort A, 40 mg SDD (10 mg NTRX-07) QD oral, Day 1, individual subjects, read-out: Tmax) was 30 min, the AUC over 24 h (AUC0-24) (10 mg, Table 19 (interim): Cohort A, 40 mg SDD (10 mg NTRX-07) QD oral, Day 1, mean ± S.D.) was 93 ± 0.9 ng·h/mL and the Cmax (10 mg, Table 19 (interim): Cohort A, 40 mg SDD (10 mg NTRX-07) QD oral, Day 1, mean ± S.D., read-out: Cmax) was 35.6 ± 12.8 ng/mL. It also gave a Tmax (10 mg, Table 19 (interim): Cohort A, 40 mg SDD (10 mg NTRX-07) QD oral, Day 1, mean ± S.D., read-out: Tmax) of 42 ± 18 min, a Vd/F (10 mg, Table 19 (interim): Cohort A, 40 mg SDD (10 mg NTRX-07) QD oral, Day 1, mean ± S.D., read-out: Vd/F) of 1280 ± 544 L and a Tmax (10 mg, Table 20 (interim): Cohort A, 40 mg SDD (10 mg NTRX-07) QD oral, Day 7, individual subjects, read-out: Tmax) of 30 min. The AUC over 24 h (AUC0-24) (10 mg, Table 20 (interim): Cohort A, 40 mg SDD (10 mg NTRX-07) QD oral, Day 7, mean ± S.D.) was 94.4 ± 66.8 ng·h/mL, the Cmax (10 mg, Table 20 (interim): Cohort A, 40 mg SDD (10 mg NTRX-07) QD oral, Day 7, mean ± S.D., read-out: Cmax) was 37.7 ± 15.9 ng/mL and the Tmax (10 mg, Table 20 (interim): Cohort A, 40 mg SDD (10 mg NTRX-07) QD oral, Day 7, mean ± S.D., read-out: Tmax) was 48 ± 18 min. It also gave a Vd/F (10 mg, Table 20 (interim): Cohort A, 40 mg SDD (10 mg NTRX-07) QD oral, Day 7, mean ± S.D., read-out: Vd/F) of 1230 ± 506 L, an AUC(0-t) (30 mg, Cohort B Fed, single 30 mg oral dose after high-fat meal, mean ± SD, read-out: Average of AUC24 h) of 390 ± 280 ng·h/mL and a Cmax (30 mg, Cohort B Fed, single 30 mg oral dose after high-fat meal, mean ± SD, read-out: Average of Cmax) of 60 ± 37 ng/mL. The Tmax (30 mg, Cohort B Fed, single 30 mg oral dose after high-fat meal, mean ± SD, read-out: Average of Tmax) was 144 ± 108 min, the Vd/F (30 mg, Cohort B Fed, single 30 mg oral dose after high-fat meal, mean ± SD, read-out: Average of Vd/F) was 699 ± 424 L and the AUC(0-t) (30 mg, Cohort B healthy, 30 mg QD oral, Day 1, mean ± SD, read-out: Average of AUC24 h) was 328 ± 213 ng·h/mL. It also gave a Cmax (30 mg, Cohort B healthy, 30 mg QD oral, Day 1, mean ± SD, read-out: Average of Cmax) of 109 ± 58 ng/mL, a Tmax (30 mg, Cohort B healthy, 30 mg QD oral, Day 1, mean ± SD, read-out: Average of Tmax) of 54 ± 30 min and a Vd/F (30 mg, Cohort B healthy, 30 mg QD oral, Day 1, mean ± SD, read-out: Average of Vd/F) of 349 ± 175 L. For the same compound, the AUC(0-t) (30 mg, Cohort B healthy, 30 mg QD oral, Day 7, mean ± SD, read-out: Average of AUC24 h) was 236 ± 186 ng·h/mL, the Cmax (30 mg, Cohort B healthy, 30 mg QD oral, Day 7, mean ± SD, read-out: Average of Cmax) was 120 ± 79 ng/mL and the Tmax (30 mg, Cohort B healthy, 30 mg QD oral, Day 7, mean ± SD, read-out: Average of Tmax) was 36 ± 12 min. For the same compound, the Vd/F (30 mg, Cohort B healthy, 30 mg QD oral, Day 7, mean ± SD, read-out: Average of Vd/F) was 391 ± 235 L, the AUC(0-t) (30 mg, Table 11: Cohort B, 30 mg QD oral, Day 1, mean ± S.D., read-out: AUClast) was 328 ± 213 ng·h/mL and the Cmax (30 mg, Table 11: Cohort B, 30 mg QD oral, Day 1, mean ± S.D., read-out: Cmax) was 109 ± 58 ng/mL. For the same compound, the Tmax (30 mg, Table 11: Cohort B, 30 mg QD oral, Day 1, mean ± S.D., read-out: Tmax) was 54 ± 30 min, the Vd/F (30 mg, Table 11: Cohort B, 30 mg QD oral, Day 1, mean ± S.D., read-out: Vd/F) was 349 ± 175 L and the Tmax (30 mg, Table 12: Cohort B, 30 mg QD oral, Day 7, individual subjects, read-out: Tmax) was 30 min. The AUC(0-t) (30 mg, Table 12: Cohort B, 30 mg QD oral, Day 7, mean ± S.D., read-out: AUClast) was 236 ± 186 ng·h/mL, the Cmax (30 mg, Table 12: Cohort B, 30 mg QD oral, Day 7, mean ± S.D., read-out: Cmax) was 120 ± 79 ng/mL and the Tmax (30 mg, Table 12: Cohort B, 30 mg QD oral, Day 7, mean ± S.D., read-out: Tmax) was 36 ± 12 min. The Vd/F (30 mg, Table 12: Cohort B, 30 mg QD oral, Day 7, mean ± S.D., read-out: Vd/F) was 391 ± 234 L, the AUC(0-t) (30 mg, Table 13: Cohort B Fed, 30 mg oral, fed state, mean ± S.D., read-out: AUClast) was 390 ± 280 ng·h/mL and the Cmax (30 mg, Table 13: Cohort B Fed, 30 mg oral, fed state, mean ± S.D., read-out: Cmax) was 60 ± 37 ng/mL. For the same compound, the Tmax (30 mg, Table 13: Cohort B Fed, 30 mg oral, fed state, mean ± S.D., read-out: Tmax) was 144 ± 108 min, the Vd/F (30 mg, Table 13: Cohort B Fed, 30 mg oral, fed state, mean ± S.D., read-out: Vd/F) was 699 ± 424 L and the AUC(0-t) (90 mg, Cohort C healthy, 90 mg QD oral, Day 1, mean ± SD, read-out: Average of AUC24 h) was 1270 ± 509 ng·h/mL. The Cmax (90 mg, Cohort C healthy, 90 mg QD oral, Day 1, mean ± SD, read-out: Average of Cmax) was 400 ± 202 ng/mL, the Tmax (90 mg, Cohort C healthy, 90 mg QD oral, Day 1, mean ± SD, read-out: Average of Tmax) was 138 ± 132 min and the Vd/F (90 mg, Cohort C healthy, 90 mg QD oral, Day 1, mean ± SD, read-out: Average of Vd/F) was 337 ± 316 L. It also gave an AUC(0-t) (90 mg, Cohort C healthy, 90 mg QD oral, Day 7, mean ± SD, read-out: Average of AUC24 h) of 741 ± 357 ng·h/mL, a Cmax (90 mg, Cohort C healthy, 90 mg QD oral, Day 7, mean ± SD, read-out: Average of Cmax) of 189 ± 95 ng/mL and a Tmax (90 mg, Cohort C healthy, 90 mg QD oral, Day 7, mean ± SD, read-out: Average of Tmax) of 78 ± 60 min. It also gave an AUC(0-t) (90 mg, Cohort D AD patients, 90 mg QD oral, Day 1, mean ± SD, read-out: Average of AUC24 h) of 1560 ± 605 ng·h/mL, a Cmax (90 mg, Cohort D AD patients, 90 mg QD oral, Day 1, mean ± SD, read-out: Average of Cmax) of 478 ± 154 ng/mL and a Tmax (90 mg, Cohort D AD patients, 90 mg QD oral, Day 1, mean ± SD, read-out: Average of Tmax) of 66 ± 36 min. For the same compound, the Vd/F (90 mg, Cohort D AD patients, 90 mg QD oral, Day 1, mean ± SD, read-out: Average of Vd/F) was 211 ± 90 L and the AUC(0-t) (90 mg, Cohort D AD patients, 90 mg QD oral, Day 7, mean ± SD, read-out: Average of AUC24 h) was 806 ± 196 ng·h/mL.
